Ten compounds from patent publication US11465993B2, “Water soluble novel cyanine fluorophore with tunable properties between near IR and SWIR region for in vivo imaging” (The USA, as represented by the Secretary, Department of …, priority 2018, dated 2022) can be followed below.

Data set [1] can be described thus: Emission (fluorescence) spectra of cyanine fluorophores in different solvents.
The nature of data set [2]: Absorbance spectra of cyanine fluorophores in different solvents (absorbance maximum, molar absorptivity).
Data set [3] can be described thus: Solubility and aggregation in PBS, serum or organic solvent. Conditions: for solubility: medium as stated in the value; for aggregation: PBS and serum.
The mark [4] stands for this setting: pH 7.4 PBS, excitation wavelength per compound (figure legends).
The mark [5] stands for this setting: pH 7.4 PBS, at wavelength of maximum absorbance.

Turning to `CCCC/N=C/C1=C2C3=C(/C(=C/C=C4/N(C)c5ccccc5C4(C)C)CCC3CC1)c1ccccc12` (centres unmarked) [Compound 26], the “emission maximum (λmax, emiss)” value in data set [1] (0.1% formic acid in acetonitrile, excitation at 800 nm) was determined as 906 nm; in data set [1] (acetonitrile), 720 nm. The entries for the “absorbance maximum (λmax, abs)” value in data set [2] (0.1% formic acid in acetonitrile) and in data set [2] (acetonitrile) were 872 nm and 540 nm, respectively.

For `CN1/C(=C/C=C2\CCC3CCC(C=O)=C4C3=C2c2ccccc24)C(C)(C)c2ccccc21` (centres unmarked) [Compound 23], in data set [1] (acetonitrile), the “emission maximum (λmax, emiss)” value was 780 nm. The “absorbance maximum (λmax, abs)” value in data set [2] (acetonitrile) was 600 nm.

Consider `CC1(C)C(/C=C/C2=C3Oc4ccccc4OC4=C3C(CC2)CC/C4=C\C=C2\N(CCCCS(=O)(=O)[O-])c3ccccc3C2(C)C)=[N+](CCCCS(=O)(=O)[O-])c2ccccc21.[Na+]` (centres unmarked) [BisSO3-NIR-890], for which the results for the “emission maximum (λmax, emiss)” value in data set [1] (10% (v/v) FBS in pH 7.4 PBS), in data set [1] (methanol) and in data set [1] (setting [4]) were 900 nm, 890 nm and 890 nm, respectively. For the same compound, the “absorbance maximum (λmax, abs)” value in data set [2] (10% (v/v) FBS in pH 7.4 PBS) was determined as 877 nm; in data set [2] (methanol), 860 nm; in data set [2] (pH 7.4 PBS) it was 689 nm. Also, the “molar absorptivity (ε)” value in data set [2] (10% (v/v) FBS in pH 7.4 PBS) is 187,000 M^−1cm^−1; in data set [2] (methanol), 275,000 M^−1cm^−1.

For `CN1/C(=C/C=C2\CCC3CCC(/C=C/C4=[N+](C)c5ccccc5C4(C)C)=C(Cl)C3=C2Cl)C(C)(C)c2ccccc21` (centres unmarked) [N-methyl-NIR-990], in data set [3], the solubility result was “organic soluble”. For the same compound, the “emission maximum (λmax, emiss)” value in data set [1] (dichloromethane) was 990 nm; in data set [1] (methanol), 960 nm. For the same compound, the “absorbance maximum (λmax, abs)” value came out at 940 nm in data set [2] (dichloromethane) and 922 nm in data set [2] (methanol). In addition, the results for the “molar absorptivity (ε)” value in data set [2] (dichloromethane) and in data set [2] (methanol) were 134,658 M^−1cm^−1 and 46,886 M^−1cm^−1, respectively.

`CC1(C)C(/C=C/C2=C3Oc4ccc(CCC(=O)O)cc4OC4=C3C(CC2)CC/C4=C\C=C2\N(CCCCS(=O)(=O)[O-])c3ccc(S(=O)(=O)[O-])cc3C2(C)C)=[N+](CCCCS(=O)(=O)[O-])c2ccc(S(=O)(=O)[O-])cc21.[Na+].[Na+].[Na+]` (centres unmarked) [NIR-900-Et]: the “emission maximum (λmax, emiss)” value in data set [1] (10% (v/v) FBS in pH 7.4 PBS) is 900 nm; in data set [1] (methanol) it was 890 nm; in data set [1] (setting [4]), 900 nm. In addition, the entries for the “absorbance maximum (λmax, abs)” value in data set [2] (10% (v/v) FBS in pH 7.4 PBS), in data set [2] (methanol) and in data set [2] (pH 7.4 PBS) were 864 nm, 860 nm and 856 nm, respectively. Also, the “molar absorptivity (ε)” value is 148,000 M^−1cm^−1 in data set [2] (10% (v/v) FBS in pH 7.4 PBS), 253,000 M^−1cm^−1 in data set [2] (methanol) and 172,000 M^−1cm^−1 in data set [2] (setting [5]).

Take `CC1(C)C(/C=C/C2=C3Sc4ccccc4SC4=C3C(CC2)CC/C4=C\C=C2\N(CCCCS(=O)(=O)[O-])c3ccc(S(=O)(=O)[O-])cc3C2(C)C)=[N+](CCCCS(=O)(=O)[O-])c2ccc(S(=O)(=O)[O-])cc21.[Na+].[Na+].[Na+]` (centres unmarked) [NIR-950]: the “emission maximum (λmax, emiss)” value in data set [1] (10% (v/v) FBS in pH 7.4 PBS) is given as 955 nm; in data set [1] (methanol), 960 nm; in data set [1] (setting [4]), 950 nm. The “absorbance maximum (λmax, abs)” value is 902 nm in data set [2] (10% (v/v) FBS in pH 7.4 PBS), 890 nm in data set [2] (methanol) and 880 nm in data set [2] (pH 7.4 PBS). The “molar absorptivity (ε)” value in data set [2] (10% (v/v) FBS in pH 7.4 PBS) is given as 128,000 M^−1cm^−1; in data set [2] (methanol), 193,000 M^−1cm^−1; in data set [2] (setting [5]) it was 79,000 M^−1cm^−1.

Turning to `CC1(C)C(/C=C/C2=C3Oc4ccc(C(=O)O)cc4OC4=C3C(CC2)CC/C4=C\C=C2\N(CCCCS(=O)(=O)[O-])c3ccc(S(=O)(=O)[O-])cc3C2(C)C)=[N+](CCCCS(=O)(=O)[O-])c2ccc(S(=O)(=O)[O-])cc21.[Na+].[Na+].[Na+]` (centres unmarked) [Compound 6], the aggregation result in data set [3] was “only moderate aggregation”. For the same compound, the “emission maximum (λmax, emiss)” value in data set [1] (10% (v/v) FBS in pH 7.4 PBS), in data set [1] (methanol) and in data set [1] (setting [4]) was 896 nm in each case. The “absorbance maximum (λmax, abs)” value was 868 nm in data set [2] (10% (v/v) FBS in pH 7.4 PBS), 866 nm in data set [2] (methanol) and 860 nm in data set [2] (pH 7.4 PBS). The “molar absorptivity (ε)” value in data set [2] (10% (v/v) FBS in pH 7.4 PBS) is listed as 192,000 M^−1cm^−1; in data set [2] (methanol), 208,000 M^−1cm^−1; in data set [2] (setting [5]), 191,000 M^−1cm^−1.

As to `CN1/C(=C/C=C2\CCC3CCC(/C=C/C4=[N+](C)c5ccccc5C4(C)C)=C4C3=C2c2ccccc24)C(C)(C)c2ccccc21` (centres unmarked) [Compound 25], the “emission maximum (λmax, emiss)” value in data set [1] (methanol) worked out at 1110 nm. Also, the “absorbance maximum (λmax, abs)” value in data set [2] (methanol) amounted to 1066 nm.

As to `CC1(C)C(/C=C/C2=C3Oc4ccc(C(=O)N(CCCS(=O)(=O)O)CCC(=O)O)cc4OC4=C3C(CC2)CC/C4=C\C=C2\N(CCCCS(=O)(=O)O)c3ccc(S(=O)(=O)[O-])cc3C2(C)C)=[N+](CCCCS(=O)(=O)O)c2ccc(S(=O)(=O)O)cc21.N.N.N.N` (centres unmarked) [Compound 10], the aggregation result in data set [3] was “eliminated aggregation in both PBS and serum”. For the same compound, the “emission maximum (λmax, emiss)” value in data set [1] (10% (v/v) FBS in pH 7.4 PBS) stood at 900 nm; in data set [1] (methanol), 896 nm; in data set [1] (setting [4]), 896 nm. Moreover, the figures for the “absorbance maximum (λmax, abs)” value in data set [2] (10% (v/v) FBS in pH 7.4 PBS), in data set [2] (methanol) and in data set [2] (pH 7.4 PBS) were 871 nm, 869 nm and 862 nm, respectively. Also, the results for the “molar absorptivity (ε)” value in data set [2] (10% (v/v) FBS in pH 7.4 PBS), in data set [2] (methanol) and in data set [2] (setting [5]) were 137,000 M^−1cm^−1, 187,000 M^−1cm^−1 and 145,000 M^−1cm^−1, respectively.

For the compound `CC1(C)C(/C=C/C2=C3C4=C(/C(=C/C=C5/N(CCCCS(=O)(=O)O)c6ccc(S(=O)(=O)[O-])cc6C5(C)C)CCC4CC2)c2cc(C(=O)O)ccc23)=[N+](CCCCS(=O)(=O)O)c2ccc(S(=O)(=O)O)cc21.N.N.N` (centres unmarked) [Compound 8], the solubility result in data set [3] is recorded as “water-soluble”. Besides, the “emission maximum (λmax, emiss)” value is given as 1086 nm in data set [1] (10% (v/v) FBS in pH 7.4 PBS), 1103 nm in data set [1] (methanol) and 1084 nm in data set [1] (setting [4]). The “absorbance maximum (λmax, abs)” value in data set [2] (10% (v/v) FBS in pH 7.4 PBS) was determined as 1062 nm; in data set [2] (methanol) it was 1072 nm; in data set [2] (pH 7.4 PBS) it was 1058 nm. The “molar absorptivity (ε)” value in data set [2] (10% (v/v) FBS in pH 7.4 PBS) is listed as 99,000 M^−1cm^−1; in data set [2] (methanol), 117,000 M^−1cm^−1; in data set [2] (setting [5]) it was 70,000 M^−1cm^−1.
